Assay results taken from BigSolDB 2.1.

A solubility (mole fraction) (in ethanol, 283.15 K) of 0.00843, a solubility (mole fraction) (in ethanol, 288.15 K) of 0.00976 and a solubility (mole fraction) (in ethanol, 293.15 K) of 0.012 were found for OC[C@H]1O[C@H](O[C@]2(CCl)O[C@H](CCl)[C@@H](O)[C@@H]2O)[C@H](O)[C@@H](O)[C@H]1Cl in this work. It also gave a solubility (mole fraction) (in ethanol, 298.15 K) of 0.0143, a solubility (mole fraction) (in ethanol, 303.15 K) of 0.0158 and a solubility (mole fraction) (in ethanol, 308.15 K) of 0.0184. For the same molecule, the solubility (mole fraction) (in ethanol, 313.15 K) was 0.0202, the solubility (mole fraction) (in ethanol, 318.15 K) was 0.0228 and the solubility (mole fraction) (in ethanol, 323.15 K) was 0.0248. It also gave a solubility (mole fraction) (in ethanol, 328.15 K) of 0.0281, a solubility (mole fraction) (in ethanol, 333.15 K) of 0.0322 and a solubility (mole fraction) (in isopropanol, 288.15 K) of 0.00389. The solubility (mole fraction) (in isopropanol, 293.15 K) was 0.0044, the solubility (mole fraction) (in isopropanol, 298.15 K) was 0.00533 and the solubility (mole fraction) (in isopropanol, 303.15 K) was 0.00624. For the same molecule, the solubility (mole fraction) (in isopropanol, 308.15 K) was 0.00789, the solubility (mole fraction) (in isopropanol, 313.15 K) was 0.00854 and the solubility (mole fraction) (in isopropanol, 318.15 K) was 0.011. It also gave a solubility (mole fraction) (in isopropanol, 323.15 K) of 0.0128, a solubility (mole fraction) (in isopropanol, 328.15 K) of 0.015 and a solubility (mole fraction) (in isopropanol, 333.15 K) of 0.0171. The solubility (mole fraction) (in methanol, 283.15 K) was 0.0307, the solubility (mole fraction) (in methanol, 288.15 K) was 0.0315 and the solubility (mole fraction) (in methanol, 293.15 K) was 0.0328. For the same molecule, the solubility (mole fraction) (in methanol, 298.15 K) was 0.0343, the solubility (mole fraction) (in methanol, 303.15 K) was 0.0362 and the solubility (mole fraction) (in methanol, 308.15 K) was 0.0383. It also gave a solubility (mole fraction) (in methanol, 313.15 K) of 0.0415, a solubility (mole fraction) (in methanol, 318.15 K) of 0.0449 and a solubility (mole fraction) (in methanol, 323.15 K) of 0.0485. The solubility (mole fraction) (in methanol, 328.15 K) was 0.0524, the solubility (mole fraction) (in methanol, 333.15 K) was 0.0596 and the solubility (mole fraction) (in water, 283.15 K) was 0.0107. For the same molecule, the solubility (mole fraction) (in water, 288.15 K) was 0.0115, the solubility (mole fraction) (in water, 293.15 K) was 0.0123 and the solubility (mole fraction) (in water, 298.15 K) was 0.0146. For the same molecule, the solubility (mole fraction) (in water, 303.15 K) was 0.0164, the solubility (mole fraction) (in water, 308.15 K) was 0.0182 and the solubility (mole fraction) (in water, 313.15 K) was 0.0195. The solubility (mole fraction) (in water, 318.15 K) was 0.0223, the solubility (mole fraction) (in water, 323.15 K) was 0.0259 and the solubility (mole fraction) (in water, 328.15 K) was 0.0285. For the same molecule, the solubility (mole fraction) (in water, 333.15 K) was 0.0314.
